Measured values: paper PMC11130353, “Using host-mimicking conditions and a murine cutaneous abscess model to identify synergistic antibiotic combinations effective against Pseudomonas aeruginosa” (Frontiers in Cellular and Infection Microbiology, 2024)
In brackets after ≈: the same amount, converted by molar mass. Read-outs that look alike come from different tables or passages of the source.

Assays:
P. aeruginosa LESB58 [1] = test: microbe, parasite or virus in culture; type: cell-based, Pseudomonas aeruginosa; settings: for Fold change TCM vs MHB (MIC): MIC in TCM vs MIC in MHB; for MIC: Pseudomonas aeruginosa
Experimental: (§1) For susceptibility testing under standard conditions, bacteria were cultured in Muller Hinton Broth MHB (Fort Richards Laboratories). […] Further susceptibility testing was also conducted in MHB supplemented with FBS (5% v/v) and DMEM supplemented with glucose (1% w/v) and MHB (10% v/v).
The minimum inhibitory concentration (MIC) of each antibiotic was determined using the broth microdilution method in 96-well plates. […] Briefly, antibiotics were two-fold serially diluted in MHB or TCM prior to adding 1 × 10^6 CFU mL^-1 bacteria. […] The MIC was recorded as the lowest antibiotic concentration with no visible growth and the median value of at least three biological replicates reported.

P. aeruginosa PAO1 = test: Minimum inhibitory concentration, broth microdilution; type: cell-based, Pseudomonas aeruginosa; settings: for Fold change TCM vs MHB (MIC): MIC in TCM vs MIC in MHB; for MIC: Pseudomonas aeruginosa, PAO1
Experimental: as §1
The minimum inhibitory concentration (MIC) of each antibiotic was determined using the broth microdilution method in 96-well plates. […] Briefly, antibiotics were two-fold serially diluted in MHB or TCM prior to adding 1 × 10^6 CFU mL^-1 bacteria. Plates were incubated at 37°C for 22-24 hours. The MIC was recorded as the lowest antibiotic concentration with no visible growth and the median value of at least three biological replicates reported.

P. aeruginosa LESB58-lux = test: In vitro synergy, checkerboard assay (luminescence readout); type: cell-based, Pseudomonas aeruginosa; settings: LESB58-lux; for FICI, drug combined with CAZ / FICI, drug combined with CZA: FICI <= 0.5 indicates synergy
Experimental: (§2) For susceptibility testing under standard conditions, bacteria were cultured in Muller Hinton Broth MHB (Fort Richards Laboratories). Host mimicking conditions in vitro were simulated using tissue culture medium (TCM) consisting of Dulbecco’s modified Eagle medium (DMEM; Gibco #11965) supplemented with FBS (Moregate Biotech) (5% v/v) and glucose (1% w/v). Further susceptibility testing was also conducted in MHB supplemented with FBS (5% v/v) and DMEM supplemented with glucose (1% w/v) and MHB (10% v/v).
(§3) The P. aeruginosa LESB58.lux strain was used for in vitro synergy experiments with azithromycin in MHB and all antibiotic combinations in TCM to determine bacterial growth (as visual inspection and absorbance measurements were unreliable). Synergy was determined using the checkerboard method ([Berenbaum, 1978]; [Pletzer and Hancock, 2018]) in at least triplicate. Each antibiotic was two-fold serially diluted in sterile water before transferring to a 96-well plate containing 1 × 10^6 CFU mL^-1 bacteria in MHB or TCM. Plates were incubated at 37°C for 22-24 hours. The MIC alone or in combination was recorded as the lowest antibiotic concentration with no visible growth. For experiments using the LESB58.lux strain no visible growth was defined as an at least 95% reduction compared to the no antibiotic growth control in luminescence detected using a ClarioStar plate reader. The fractional inhibitory concentration index (FICI) was calculated as [(MICA in combination)/MICA] + [(MICB in combination)/MICB]. FICI values of 0.5 or below indicated synergy, while values above 0.5 up to and including 1 were taken to indicate additivity. FICI values above 1 indicate indifference or antagonism ([Odds, 2003]).

[2] = for Highest tolerated dose tested: 50 μL injected subcutaneously, skin inspected next day; for Toxic (visible skin irritation, inflammation, blood vessels, swelling): female, Swiss Webster, mouse, in vivo, sc, 1 day
Experimental: Mice used in this study were female Swiss Webster aged approximately 6-7 weeks and sourced from the University of Otago Biomedical Research Facility. […] Briefly, the fur on the back of each mouse was removed by shaving and chemical depilation. Antibiotics were tested for skin toxicity by injecting 50 μL of antibiotic suspension subcutaneously into naïve mice, and subsequent inspection of the skin for inflammation on the next day. P. aeruginosa LESB58 was grown to mid-log phase in dYT broth, washed twice in sterile PBS (Gibco, pH 7.4), and resuspended in PBS to ~1 x 10^8 CFU per 50 μL inoculum. The bacterial suspension (50 μL) was injected subcutaneously into the right side of the dorsum, followed one hour later by 50 μL of antibiotic treatment injected directly into the infected area. […] Combination treatments were administered as a single 50 μL injection containing both antibiotics. The concentration of each antibiotic in the combination was the same as when it was used alone. Progression of the infection was monitored daily, and abscess dimensions were measured on day three using a calliper. On day three, abscess tissue and pus were excised, homogenized in sterile PBS using SPEX SamplePrep 1600 MiniG for five minutes and bacterial CFU counts determined by serial dilution.

P. aeruginosa LESB58 [3] = test: Murine high density subcutaneous skin abscess model; type: in vivo, Pseudomonas aeruginosa; settings: for CFU per abscess, Fold change / Area of dermoncecrosis, % reduction: compared to the vehicle control; for CFU per abscess, Fold change / Area of dermoncecrosis, % reduction / CFU per abscess, Geometric mean / Area of dermoncecrosis, Mean: day 3; for Area of dermoncecrosis, Mean: female Swiss Webster mice
Experimental: Mice used in this study were female Swiss Webster aged approximately 6-7 weeks and sourced from the University of Otago Biomedical Research Facility. […] The subcutaneous abscess infection model was performed as previously described ([Pletzer et al., 2017]) with a higher inoculum. Briefly, the fur on the back of each mouse was removed by shaving and chemical depilation. Antibiotics were tested for skin toxicity by injecting 50 μL of antibiotic suspension subcutaneously into naïve mice, and subsequent inspection of the skin for inflammation on the next day. P. aeruginosa LESB58 was grown to mid-log phase in dYT broth, washed twice in sterile PBS (Gibco, pH 7.4), and resuspended in PBS to ~1 x 10^8 CFU per 50 μL inoculum. The bacterial suspension (50 μL) was injected subcutaneously into the right side of the dorsum, followed one hour later by 50 μL of antibiotic treatment injected directly into the infected area. […] Combination treatments were administered as a single 50 μL injection containing both antibiotics. The concentration of each antibiotic in the combination was the same as when it was used alone. Progression of the infection was monitored daily, and abscess dimensions were measured on day three using a calliper. On day three, abscess tissue and pus were excised, homogenized in sterile PBS using SPEX SamplePrep 1600 MiniG for five minutes and bacterial CFU counts determined by serial dilution. In this model, synergy was defined as being a significant difference between the combination treated group and the amalgamated group of single drug treated animals ([Fantin and Carbon, 1992]; [Pletzer et al., 2018]).
Statistical analysis was performed using GraphPad Prism 9.5.1. Bacterial CFU and abscess size data from in vivo experiments was analysed by Kruskal-Wallace test with Dunn’s correction for multiple comparisons. The data was considered significant when p-values were below 0.05 or 0.01 as indicated.

P. aeruginosa LESB58 [4] = test: In vitro synergy, checkerboard assay; type: cell-based, Pseudomonas aeruginosa; settings: MHB; for FICI, drug combined with CAZ / FICI, drug combined with CZA: FICI <= 0.5 indicates synergy
Experimental: as §2, §3

[5] = LESB58, read-out: MIC in MHB, MHB, 20-24 h
[6] = LESB58, read-out: MIC in TCM, TCM (DMEM + 1% glucose + 5% FBS), 20-24 h
[7] = Azithromycin group, CAZ or CZA 50 mg/mL, AZM 6.25 mg/mL
[8] = Colistin, tigecycline and tobramycin groups

## CC[C@H]1OC(=O)[C@H](C)[C@@H](O[C@H]2C[C@@](C)(OC)[C@@H](O)[C@H](C)O2)[C@H](C)[C@@H](O[C@@H]2O[C@H](C)C[C@H](N(C)C)[C@H]2O)[C@](C)(O)C[C@@H](C)CN(C)[C@H](C)[C@@H](O)[C@]1(C)O [AZM, azithromycin]
P. aeruginosa LESB58 [1]
  Fold change TCM vs MHB (MIC): -100
P. aeruginosa LESB58 [1]; [5]
  MIC: 62.5 µg/mL (≈ 83.4 µM)
P. aeruginosa LESB58 [1]; [6]
  MIC: 0.625 µg/mL
P. aeruginosa LESB58 [1]; host mimicking TCM vs MHB
  Fold increase of efficacy in TCM compared to MHB: 100
P. aeruginosa PAO1
  Fold change TCM vs MHB (MIC): >-300
P. aeruginosa PAO1; read-out: MIC in MHB
  MIC: 250 µg/mL (≈ 334 µM)
P. aeruginosa PAO1; read-out: MIC in TCM
  MIC: < 0.78 µg/mL
P. aeruginosa LESB58-lux; MHB
  Fold decrease in CAZ MIC, drug combined with CAZ: 4
  Fold decrease in CZA MIC, drug combined with CZA: 4
  Fold decrease in other MIC, drug combined with CAZ: 4
  Fold decrease in other MIC, drug combined with CZA: 2
  FICI, drug combined with CAZ: 0.5
  FICI, drug combined with CZA: 0.75
P. aeruginosa LESB58-lux; MHB, listed as azithromycin
  FICI, drug combined with CZA: did not act synergistically
P. aeruginosa LESB58-lux; TCM
  Fold decrease in CAZ MIC, drug combined with CAZ: 8
  Fold decrease in CZA MIC, drug combined with CZA: 2
  Fold decrease in other MIC, drug combined with CAZ: 2
  Fold decrease in other MIC, drug combined with CZA: 2
  FICI, drug combined with CAZ: 0.625
  FICI, drug combined with CZA: 1
[2]
  Highest tolerated dose tested: 25 mg/mL
  Toxic (visible skin irritation, inflammation, blood vessels, swelling): 50 mg/mL
P. aeruginosa LESB58 [3]; Azithromycin experiments
  Fold reduction of bacterial load (CFU) relative to vehicle: ~ 42
P. aeruginosa LESB58 [3]; Azithromycin group
  CFU per abscess, Fold change: -42.1
P. aeruginosa LESB58 [3]; [7]
  Area of dermoncecrosis, % reduction: 36.4%
  CFU per abscess, Geometric mean: 8.5 × 10^6 CFU per abscess
P. aeruginosa LESB58 [3]; Azithromycin group, CAZ or CZA 50 mg/mL, AZM 6.25 mg/mL, listed as azithromycin
  Area of dermoncecrosis, % reduction: 36%
P. aeruginosa LESB58 [3]; Azithromycin group, 50 μL s.c. into infected area 1 h after infection, CAZ or CZA 50 mg/mL, AZM 6.25 mg/mL, vehicle citric acid in saline
  Area of dermoncecrosis, Mean: 64.5 mm^2

## CN(C)c1cc(NC(=O)CNC(C)(C)C)c(O)c2c1C[C@H]1C[C@H]3[C@H](N(C)C)C(O)=C(C(N)=O)C(=O)[C@@]3(O)C(O)=C1C2=O [TGC, tigecycline]
P. aeruginosa LESB58 [1]
  Fold change TCM vs MHB (MIC): >80
P. aeruginosa LESB58 [1]; [5]
  MIC: 6.25 µg/mL (≈ 10.7 µM)
P. aeruginosa LESB58 [1]; [6]
  MIC: > 500 µg/mL
P. aeruginosa LESB58 [1]; TCM (DMEM + 1% glucose + 5% FBS), 20-24 h
  MIC in TCM: entirely lost its efficacy
P. aeruginosa PAO1
  Fold change TCM vs MHB (MIC): >40
P. aeruginosa PAO1; read-out: MIC in MHB
  MIC: 12.5 µg/mL (≈ 21.3 µM)
P. aeruginosa PAO1; read-out: MIC in TCM
  MIC: > 500 µg/mL
P. aeruginosa LESB58 [4]
  Fold decrease in CAZ MIC, drug combined with CAZ: 4
  Fold decrease in CZA MIC, drug combined with CZA: 8
  Fold decrease in other MIC, drug combined with CAZ: 8
  Fold decrease in other MIC, drug combined with CZA: 8
  FICI, drug combined with CAZ: 0.38
  FICI, drug combined with CZA: 0.25
P. aeruginosa LESB58 [4]; listed as tigecycline
  FICI, drug combined with CAZ: < 0.4
  FICI, drug combined with CZA: < 0.4
[2]
  Highest tolerated dose tested: 12 mg/mL
  Toxic (visible skin irritation, inflammation, blood vessels, swelling): 25 mg/mL
P. aeruginosa LESB58 [3]; Colistin, tigecycline and tobramycin groups (shared vehicle, CAZ and CZA mice), 50 μL s.c. 1 h after infection, CAZ or CZA 50, CST 1.25, TGC 2.5, TOB 2 mg/mL, vehicle 0.9% saline
  Area of dermoncecrosis, Mean: 86.7 mm^2
P. aeruginosa LESB58 [3]; [8]
  Area of dermoncecrosis, % reduction: 7.7%
  CFU per abscess, Fold change: -2.4
  CFU per abscess, Geometric mean: 1.0 × 10^8 CFU per abscess
